Measurements from patent US11185073B2, “Microbiocidal quinoline (thio)carboxamide derivatives” (SYNGENTA PARTICIPATIONS AG, priority 2017, dated 2021).

Tests used:
[1] = tested on: Botryotinia fuckeliana (Botrytis cinerea); experiment: Botryotinia fuckeliana (Botrytis cinerea) / liquid culture (gray mould); type: cell-based; conditions: 72 h, growth inhibition photometrically 3-4 days after application, compared to untreated control
[2] = tested on: Glomerella lagenarium (Colletotrichum lagenarium); experiment: Glomerella lagenarium (Colletotrichum lagenarium) / liquid culture (anthracnose); type: cell-based; conditions: Colletotrichum orbiculare, growth inhibition photometrically 3-4 days after application, compared to untreated control
Fusarium culmorum [3] = experiment: microbe, parasite or virus in culture; type: cell-based; conditions: 72 h, read-out: control of Fusarium culmorum
Fusarium culmorum [4] = experiment: whole plant or invertebrate; type: in vivo; conditions: in Triticum aestivum, read-out: control of Fusarium culmorum
[5] = tested on: Gibberella zeae (Fusarium graminearum); experiment: whole plant or invertebrate; type: in vivo; conditions: in Triticum aestivum, read-out: control of Gibberella zeae
[6] = tested on: Monographella nivalis (Microdochium nivale); experiment: Monographella nivalis (Microdochium nivale) / liquid culture (foot rot cereals); type: cell-based; conditions: 96 h, growth inhibition photometrically 4-5 days after application, compared to untreated control
[7] = tested on: Magnaporthe grisea (Pyricularia oryzae); experiment: microbe, parasite or virus in culture; type: cell-based; conditions: 72 h, read-out: control of Magnaporthe grisea

CC(COC1CCC1)(CC(F)(F)F)NC(=O)c1cnc2c(F)cccc2c1 (stereo in doubt) [E.014, N-[(1S)-1-(cyclo-butoxymethyl)-3,3,3-trifluoro-1-methyl-propyl]-8-fluoro-quinoline-3-carboxamide]
≥ 80%: inhibition of growth at 20 ppm [1] | inhibition of growth at 20 ppm [2] | inhibition of growth at 20 ppm (Fusarium culmorum [3]) | pest or weed control at 200 ppm (Fusarium culmorum [4]) | pest or weed control at 200 ppm [5]

CC(COC1CCCCC1)(CC(F)(F)F)NC(=O)c1cnc2c(F)cccc2c1 (stereo in doubt) [E.017, N-[(1S)-1-(cyclo-hexoxymethyl)-3,3,3-trifluoro-1-methyl-propyl]-8-fluoro-quinoline-3-carboxamide]
≥ 80%: pest or weed control at 200 ppm [5]

CC(C)(C)CC(C)(COCC1CC1)NC(=O)c1cnc2c(F)cccc2c1 (centres unmarked) [E.006, N-[1-(cyclo-propylmethoxy-methyl)-1,3,3-trimethylbutyl]-8-fluoro-quinoline-3-carboxamide]
≥ 80%: inhibition of growth at 20 ppm [1] | inhibition of growth at 20 ppm [2] | inhibition of growth at 20 ppm (Fusarium culmorum [3]) | pest or weed control at 200 ppm (Fusarium culmorum [4]) | inhibition of growth at 20 ppm [6] | inhibition of growth at 20 ppm [7]

Cc1c(C(=O)NC(C)(COC2CCC2)CC(F)(F)F)cnc2c(F)cccc12 (centres unmarked) [E.007, N-[1-(cyclo-butoxymethyl)-3,3,3-trifluoro-1-methyl-propyl]-8-fluoro-4-methyl-quinoline-3-carboxamide]
≥ 80%: inhibition of growth at 20 ppm [1] | inhibition of growth at 20 ppm [2] | inhibition of growth at 20 ppm (Fusarium culmorum [3]) | pest or weed control at 200 ppm (Fusarium culmorum [4]) | pest or weed control at 200 ppm [5] | inhibition of growth at 20 ppm [6] | inhibition of growth at 20 ppm [7]

CC(COC1CCC1)(CC(F)(F)F)NC(=O)c1cnc2c(F)c(F)ccc2c1 (centres unmarked) [E.008, N-[1-(cyclo-butoxymethyl)-3,3,3-trifluoro-1-methyl-propyl]-7,8-difluoro-quinoline-3-carboxamide]
≥ 80%: inhibition of growth at 20 ppm [1] | inhibition of growth at 20 ppm [2] | inhibition of growth at 20 ppm (Fusarium culmorum [3]) | pest or weed control at 200 ppm (Fusarium culmorum [4]) | pest or weed control at 200 ppm [5] | inhibition of growth at 20 ppm [6] | inhibition of growth at 20 ppm [7]

Cc1nc2c(F)cccc2cc1C(=O)NC(C)(COC1CCC1)CC(F)(F)F (centres unmarked) [E.009, N-[1-(cyclo-butoxymethyl)-3,3,3-trifluoro-1-methyl-propyl]-8-fluoro-2-methyl-qiuinoline-3-carboxamide]
≥ 80%: inhibition of growth at 20 ppm [1] | inhibition of growth at 20 ppm [2] | inhibition of growth at 20 ppm (Fusarium culmorum [3]) | inhibition of growth at 20 ppm [7]

CC(COC1(C)CCCC1)(CC(F)(F)F)NC(=O)c1cnc2c(F)cccc2c1 (centres unmarked) [E.010]
≥ 80%: inhibition of growth at 20 ppm [1] | inhibition of growth at 20 ppm [2] | inhibition of growth at 20 ppm (Fusarium culmorum [3]) | pest or weed control at 200 ppm (Fusarium culmorum [4]) | pest or weed control at 200 ppm [5] | inhibition of growth at 20 ppm [6]

Cc1cccc2cc(C(=O)NC(C)(COC3CCC3)CC(F)(F)F)cnc12 (centres unmarked) [E.011]
≥ 80%: inhibition of growth at 20 ppm [1] | inhibition of growth at 20 ppm [2] | inhibition of growth at 20 ppm (Fusarium culmorum [3]) | pest or weed control at 200 ppm (Fusarium culmorum [4]) | inhibition of growth at 20 ppm [6] | inhibition of growth at 20 ppm [7]

CC(COC1CCC1)(CC(F)(F)F)NC(=O)c1cnc2c(Cl)cccc2c1 (centres unmarked) [E.012, 8-chloro-N-[1-(cyclobutoxymethyl)-3,3,3-trifluoro-1-methyl-propyl]-quinoline-3-carboxamide]
≥ 80%: inhibition of growth at 20 ppm [1] | inhibition of growth at 20 ppm [2] | inhibition of growth at 20 ppm (Fusarium culmorum [3]) | pest or weed control at 200 ppm (Fusarium culmorum [4]) | pest or weed control at 200 ppm [5] | inhibition of growth at 20 ppm [6] | inhibition of growth at 20 ppm [7]

C[C@@](COC1CCC1)(CC(F)(F)F)NC(=O)c1cnc2c(F)cccc2c1 [E.013, N-[(1S)-1-(cyclo-butoxymethyl)-3,3,3-trifluoro-1-methyl-propyl]-8-fluoro-quinoline-3-carboxamide]
≥ 80%: inhibition of growth at 20 ppm [1] | inhibition of growth at 20 ppm [2] | inhibition of growth at 20 ppm (Fusarium culmorum [3]) | pest or weed control at 200 ppm (Fusarium culmorum [4]) | inhibition of growth at 20 ppm [6]

CC(COC1(C)CCCCC1)(CC(F)(F)F)NC(=O)c1cnc2c(F)cccc2c1 (centres unmarked) [E.015, 8-fluoro-N-[3,3,3-trifluoro-1-methyl-1-[(1-methylcyclo-hexoxy)methyl]-propyl]quinoline-3-carboxamide]
≥ 80%: inhibition of growth at 20 ppm [1] | inhibition of growth at 20 ppm [2] | inhibition of growth at 20 ppm (Fusarium culmorum [3]) | inhibition of growth at 20 ppm [7]

CC1(CC(C)(COCc2ccccc2)NC(=O)c2cnc3c(F)cccc3c2)CC1 (centres unmarked) [E.018, N-[1-(benzyloxy-methyl)-1-methyl-2-(1-methylcyclo-propyl)ethyl]-8-fluoro-quinoline-3-carboxamide]
≥ 80%: inhibition of growth at 20 ppm [1] | inhibition of growth at 20 ppm (Fusarium culmorum [3]) | inhibition of growth at 20 ppm [6] | inhibition of growth at 20 ppm [7]

CC(COc1ccccc1)(CC(F)(F)F)NC(=O)c1cnc2c(F)cccc2c1 (centres unmarked) [E.019, 8-fluoro-N-[3,3,3-trifluoro-1-methyl-1-(phenoxy-methyl)propyl]-quinoline-3-carboxamide]
≥ 80%: inhibition of growth at 20 ppm [1] | inhibition of growth at 20 ppm [2] | inhibition of growth at 20 ppm (Fusarium culmorum [3]) | pest or weed control at 200 ppm (Fusarium culmorum [4]) | pest or weed control at 200 ppm [5] | inhibition of growth at 20 ppm [6] | inhibition of growth at 20 ppm [7]

C=C(C)COCC(C)(CC(C)C)NC(=O)c1cnc2c(F)cccc2c1 (centres unmarked) [E.020, N-[1,3-dimethyl-1-(2-methylallyloxy-methyl)butyl]-8-fluoro-quinoline-3-carboxamide]
≥ 80%: inhibition of growth at 20 ppm [1] | inhibition of growth at 20 ppm [2] | inhibition of growth at 20 ppm (Fusarium culmorum [3]) | pest or weed control at 200 ppm (Fusarium culmorum [4]) | pest or weed control at 200 ppm [5] | inhibition of growth at 20 ppm [6] | inhibition of growth at 20 ppm [7]

CC(COC1CCC1)(CC(F)(F)F)NC(=O)c1cnc2c(F)cccc2c1 (centres unmarked) [E.021, N-[1-(cyclobutoxy-methyl)-3,3,3-trifluoro-1-methyl-propyl]-8-fluoro-quinoline-3-carboxamide]
≥ 80%: inhibition of growth at 20 ppm [1] | inhibition of growth at 20 ppm [2] | inhibition of growth at 20 ppm (Fusarium culmorum [3]) | inhibition of growth at 20 ppm [7]

CCC(CC)OCC(C)(CC(C)C)NC(=O)c1cnc2c(F)cccc2c1 (centres unmarked) [E.022, N-[1-(1-ethyl-propoxymethyl)-1,3-dimethyl-butyl]-8-fluoro-quinoline-3-carboxamide]
≥ 80%: inhibition of growth at 20 ppm [1] | inhibition of growth at 20 ppm [2] | inhibition of growth at 20 ppm (Fusarium culmorum [3]) | pest or weed control at 200 ppm (Fusarium culmorum [4]) | inhibition of growth at 20 ppm [6] | inhibition of growth at 20 ppm [7]

CC(C)CC(C)(COC1CCC1)NC(=O)c1cnc2c(F)cccc2c1 (centres unmarked) [E.023, N-[1-(cyclo-butoxymethyl)-1,3-dimethyl-butyl]-8-fluoro-quinoline-3-carboxamide]
≥ 80%: inhibition of growth at 20 ppm [1] | inhibition of growth at 20 ppm [2] | inhibition of growth at 20 ppm (Fusarium culmorum [3]) | pest or weed control at 200 ppm (Fusarium culmorum [4]) | pest or weed control at 200 ppm [5] | inhibition of growth at 20 ppm [6] | inhibition of growth at 20 ppm [7]

CC(C)CC(C)(COC(C)C)NC(=O)c1cnc2c(F)cccc2c1 (centres unmarked) [E.024, 8-fluoro-N-[1-(iso-propoxymethyl)-1,3-dimethyl-butyl]quinoline-3-carboxamide]
≥ 80%: inhibition of growth at 20 ppm [1] | inhibition of growth at 20 ppm [2] | inhibition of growth at 20 ppm (Fusarium culmorum [3]) | pest or weed control at 200 ppm (Fusarium culmorum [4]) | pest or weed control at 200 ppm [5] | inhibition of growth at 20 ppm [7]

CC(C)COCC(C)(CC(C)C)NC(=O)c1cnc2c(F)cccc2c1 (centres unmarked) [E.025, 8-fluoro-N-[1-(iso-butoxymethyl)-1,3-dimethyl-butyl]-quinoline-3-carboxamide]
≥ 80%: inhibition of growth at 20 ppm [1] | inhibition of growth at 20 ppm [2] | inhibition of growth at 20 ppm (Fusarium culmorum [3]) | pest or weed control at 200 ppm (Fusarium culmorum [4]) | pest or weed control at 200 ppm [5] | inhibition of growth at 20 ppm [6] | inhibition of growth at 20 ppm [7]

CC(C)CC(C)(COc1ccccc1)NC(=O)c1cnc2c(F)cccc2c1 (centres unmarked) [E.028, N-[1,3-dimethyl-1-(phenoxymethyl)-butyl]-8-fluoro-quinoline-3-carboxamide]
≥ 80%: inhibition of growth at 20 ppm [1] | inhibition of growth at 20 ppm [2] | inhibition of growth at 20 ppm (Fusarium culmorum [3]) | pest or weed control at 200 ppm (Fusarium culmorum [4]) | inhibition of growth at 20 ppm [6]

CC(C)CC(C)(COC1CCCCC1)NC(=O)c1cnc2c(F)cccc2c1 (centres unmarked) [E.029, N-[1-(cyclohexoxy-methyl)-1,3-dimethyl-butyl]-8-fluoro-quinoline-3-carboxamide]
≥ 80%: inhibition of growth at 20 ppm [1] | inhibition of growth at 20 ppm [2] | inhibition of growth at 20 ppm (Fusarium culmorum [3]) | pest or weed control at 200 ppm (Fusarium culmorum [4]) | inhibition of growth at 20 ppm [6] | inhibition of growth at 20 ppm [7]

CC(C)CC(C)(COC1CCCC1)NC(=O)c1cnc2c(F)cccc2c1 (centres unmarked) [E.031, N-[1-(cyclopentoxy-methyl)-1,3-dimethyl-butyl]-8-fluoro-quinoline-3-carboxamide]
≥ 80%: inhibition of growth at 20 ppm [1] | inhibition of growth at 20 ppm [2] | inhibition of growth at 20 ppm (Fusarium culmorum [3]) | pest or weed control at 200 ppm (Fusarium culmorum [4]) | inhibition of growth at 20 ppm [6] | inhibition of growth at 20 ppm [7]

CCCCCCCCC(C)(COC)NC(=O)c1cnc2c(F)cccc2c1 (centres unmarked) [E.033, 8-fluoro-N-[1-(methoxymethyl)-1-methyl-nonyl]-quinoline-3-carboxamide]
≥ 80%: inhibition of growth at 20 ppm [1] | inhibition of growth at 20 ppm [2] | inhibition of growth at 20 ppm (Fusarium culmorum [3]) | pest or weed control at 200 ppm [5] | inhibition of growth at 20 ppm [6]
